Source: patent publication US8344007B2, “Water-soluble polymer-based cantharimides as potentially selective anti-tumor agents” (priority 2009, dated 2013)
≈ marks a conversion by molar mass, not a printed value.

Tests used:
[1] = test system: Hep3B; assay: MTS assay, Hep3B cell growth; format: cell-based; settings: Homo sapiens, 48 hours of incubation
Excerpt: (§1) An acute myelogenous leukaemia (AML) cell line (KG1a) and a hepatocellular carcinoma (HCC) cell line (Hep3B) may be obtained from American Type of Culture Collection (ATCC). The AML cell line may be maintained in RPMI 1640 (JRH Biosciences) supplemented with 10% of heat inactivated fetal bovine serum (Hyclone), together with antibiotics including penicillin and streptomycin. The Hep3B HCC cell line may be maintained in DMEM with 10% of heat inactivated fetal bovine serum (Hyclone), together with antibiotics including penicillin and streptomycin. Cells may be allowed to grow in a humidified cell culture incubator kept at 5% carbon dioxide.
(§2) The effect of the synthesized cantharimides on the growth of the cell lines described above was investigated in vitro using a standard MTS ([3-(4,5-dimethylthiazol-2-yl)-5-(3-carboxymethoxyphen-yl)-2-(4-sulfophenyl)-2H-tetrazolium]) assay. Changes in the cellular viability of cell that include Hep3B and SKHep-1 with cantharidin analogues were monitored using the MTS activity assay. In particular, 1×10^4 hepatoma carcinoma cells (SK-Hep-1) were seeded at day 0. For the MTS assay, the medium was changed after 24 hours, and various compounds were then added at different concentrations. For bone marrow cells, compounds were added at the same day as the seeding. After 48 hours of incubation, the medium was removed, and MTS/PMS solution was added. The added medium was incubated for exactly 30 minutes. Subsequently, optical absorbance was determined at 490 nm using an optical absorbance detector (available from Promega).
More than 30 cantharimides were screened for their effects on cell proliferation and potential cytotoxicity in the two cell lines of Hep3B and SKHep-1. The activities of cantharimide were monitored in the presence of dicantharidic (a commercially available cantharidin-mimic) as a reference control.

[2] = Solubility; format: physicochemical
[3] = test system: leukemia cell line KG1a; assay: MTS assay, leukemia cell line KG1a; format: cell-based; settings: for IC50: Homo sapiens, KG-1a, concentration necessary for 50% of MTS reduction ability vs control, read-out: MTS50 activity
Excerpt: as §1, §2
The cytotoxic activity of cantharimide of formula (3) using a leukemia cell line KG1a was investigated by means of a MTS assay. The MTS50 activity was measured as the concentration necessary for 50% of MTS reduction ability by the chemical treated cell as compared with the control. […] On the other hand, cantharimide gave a value of about 5 µg/ml for MTS50 activity against the same cancer cell line.

[4] = test system: non-malignant haematological disorder bone marrow cells; assay: MTS assay, primary culture of bone marrow cells; format: cell-based, human; parameters: toxicity to bone marrow cells: dose or concentration left out as unconfirmed
Excerpt: (§3) Non-malignant hematological disorder bone marrow cells may be collected by a bone marrow aspirate method from consented patients from clinical wards of Prince of Wales Hospital (Hong Kong, China), according to the regulation of the Hospital. Immediately after collection, mononuclear cells may be enriched by Ficoll Plaque (available from General Electricity) gradient centrifugation. Cells may be washed twice by phosphate buffered saline and resuspended in complete medium. Viable cell percentage may then be estimated by trypan blue exclusion assay and counted using a haemacytometer.
as §2, with “After 48 hours of incubation, the medium was removed, and MTS/PMS solution was added. The added medium was incubated for exactly 30 minutes.” left out

[5] = test system: non-malignant haematological disorder bone marrow; assay: Morphology assay, bone marrow; format: cell-based, human; settings: 48 hours incubation
Excerpt: as §3
The toxicity on non-malignant haematological bone marrow sample was tested to evaluate the side effects of cantharidin, which included bone marrow suppression, and gastrointestinal and urinary tract toxicity.
(§4) The morphological effect of cytotoxic action of cantharidic acid and cantharimide on leukemia cells are depicted in FIGS. 1A to 1F. The untreated non-malignant haematological disorder bone marrow and KG1a AML cell lines are depicted in FIGS. 1A and 1D, respectively. The non-malignant haematological disorder bone marrow and KG1a AML cell lines treated with 5 µg/mL of dicantharidic acid are depicted in FIGS. 1B and 1E, respectively. The non-malignant haematological disorder bone marrow and KG1a AML cell lines treated with 5 µg/mL of cantharimide are depicted in FIGS. 1C and 1F, respectively.

[6] = test system: KG1a AML cell line; assay: Morphology assay, KG1a AML cell line; format: cell-based; parameters: dose or concentration left out as unconfirmed; settings: 48 hours incubation
Excerpt: as §1, §4

Row | SMILES | IC50 [1] [µg/mL] | Solubility in water [2] | other results
1 | COc1ccc2nc(N3C(=O)[C@@]4(C)[C@@H]5CC[C@@H](O5)[C@@]4(C)C3=O)sc2c1 [Entry 3] | ~5 (≈ 14 µM) | Poor | 
2 | C[C@@]12C(=O)N(c3nc4ccc(F)cc4s3)C(=O)[C@]1(C)[C@H]1CC[C@@H]2O1 [Entry 6] | ~5 (≈ 14.4 µM) | Poor | 
3 | CC1(C(=O)O)C2CCC(O2)C1(C)C(=O)O (stereo not shown) [dicantharidic acid, reference compound] |  |  | IC50 [3]: ~0.5 µg/mL (≈ 2.33 µM); activity to the cancer cell line compared to cantharimide ([3]; MTS50): 10 fold; toxicity to bone marrow cells ([4]; concentration down to 0.15625, 48 hours of incubation): extremely toxic; morphological effect on bone marrow cells [5]: induced a similar loss; morphological effect on leukemia cells [6]: induced loss of colony formation potential and cell shrinkage
4 | C[C@@]12C(=O)N(c3nc4ccc(C(=O)O)cc4s3)C(=O)[C@]1(C)[C@H]1CC[C@@H]2O1 [Entry 7] | ~5 (≈ 13.4 µM) | Good | IC50 [3]: ~5 µg/mL (≈ 13.4 µM); cytotoxic activity to normal bone marrow cells [4]: lack of cytotoxic activity; morphological effect on bone marrow cells [5]: colony formation remained unchanged; solubility ([2]; DMSO, organic solvent or mixture): 250 mg/mL (≈ 671000 µM); morphological effect on leukemia cells [6]: induced loss of colony formation potential and cell shrinkage
5 | C[C@@]12C(=O)N(c3nc4ccc(C(F)(F)F)cc4s3)C(=O)[C@]1(C)[C@H]1CC[C@@H]2O1 [Entry 5] | ~5 (≈ 12.6 µM) | Fair | 
6 | COC(=O)c1ccc2nc(N3C(=O)[C@@]4(C)[C@@H]5CC[C@@H](O5)[C@@]4(C)C3=O)sc2c1 [Entry 8] |  | Good | 
7 | CCCCOC(=O)c1ccc2nc(N3C(=O)[C@@]4(C)[C@@H]5CC[C@@H](O5)[C@@]4(C)C3=O)sc2c1 [Entry 9] |  | Good | 
8 | C[C@@]12C(=O)N(c3nc4ccc(OC(F)(F)F)cc4s3)C(=O)[C@]1(C)[C@H]1CC[C@@H]2O1 [Entry 4] | ~10 (≈ 24.2 µM) | Fair | 
9 | C[C@@]12C(=O)N(c3nc4ccccc4s3)C(=O)[C@]1(C)[C@H]1CC[C@@H]2O1 [Entry 1] | ~6 (≈ 18.3 µM) | Poor | 
10 | Cc1ccc2nc(N3C(=O)[C@@]4(C)[C@@H]5CC[C@@H](O5)[C@@]4(C)C3=O)sc2c1 [Entry 2] | ~20 (≈ 58.4 µM) | Poor | 
11 | C[C@]1(C(=O)O)[C@@H]2CC[C@@H](O2)[C@@]1(C)C(=O)O [Entry 11, reference compound] | ~0.25 (≈ 1.17 µM) | Excellent | 
